Read-outs that look alike come from different tables or passages of the source.
Legend:
[1] = 1,000 bootstrap-resampled data sets
[2] = Individual pharmacokinetic parameters by renal function subgroup, post hoc empirical Bayesian approach; settings: Total, N=155, mean ± SD
Description: After fixing the PK parameters and variation in the final model, the PK parameters for individuals in three groups of different renal function were obtained by using post hoc empirical Bayesian approach. The mean values and standard deviation of the parameters in different groups were calculated.

[3] = system: MRSA; set-up: method as in 2 sources, one per row (each row's own in cited_ref): ref Giachetto et al. ([32]) ||| ref Frymoyer et al. ([33]); settings: vancomycin 39.92mg·kg-1·d-1; MRSA strains with MIC 1 mg·L-1; ref Giachetto et al. ([32]); cited from earlier work
[4] = cited from earlier work
Text: In this study, the data of 155 children (aged from 1 month to 16 years) infected with MRS were used to establish a PPK model suitable for Chinese children. And then the PK parameters were obtained by Bayesian method. […] But the value of CL is faster than that reported by Marques-Minana et al.([23]) (0.066 L· ...

[5] = Japanese pediatric patients, ref Yasuhara et al.([17])
[6] = pediatric patients, ref Wrishko et al.(16)

Structure (SMILES): CN[C@H](CC(C)C)C(=O)N[C@H]1C(=O)N[C@@H](CC(N)=O)C(=O)N[C@H]2C(=O)N[C@H]3C(=O)N[C@H](C(=O)N[C@H](C(=O)O)c4cc(O)cc(O)c4-c4cc3ccc4O)[C@H](O)c3ccc(c(Cl)c3)Oc3cc2cc(c3O[C@@H]2O[C@H](CO)[C@@H](O)[C@H](O)[C@H]2O[C@H]2C[C@](C)(N)[C@H](O)[C@H](C)O2)Oc2ccc(cc2Cl)[C@H]1O [vancomycin, Vancomycin]
- Exponent for Weight as covariate for CL, bootstrap median [1]: 0.852
- Exponent for Weight as covariate for Vd, bootstrap median [1]: 1.018
- Exponent for lnGFR as covariate for CL, bootstrap median [1]: 2.378
- θVd (typical value for Weight=9 kg), bootstrap median [1]: 5.39 L
- CL [2]: 2.22 ± 1.1 mL/min/kg
- Vd [2]: 0.65 ± 0.30 L/kg
- ke [2]: 0.218 ± 0.091 h⁻¹
- probability of AUC0-24h/MIC ≥ 400 [3]: 50%
- CL [4, 5]: 1.98 mL/min/kg
- Vd [4, 5]: 0.522 L/kg
- CL ([4]; neonates, ref Marques-Minana et al.([23])): 1.1 mL/min/kg
- CL [4, 6]: 2 mL/min/kg
- Vd [4, 6]: 0.57 L/kg

Source: paper PMC6706711 (Iranian Journal of Pharmaceutical Research : IJPR, 2019)
